The values that follow come from patent US8143254B2, “Methods for modulating ion channels” (Cornell Research Foundation, Inc., priority 2005, dated 2012).

This assay concerns the target T1, Δ1-28 Kv3.4 channels (Homo sapiens, UniProt Q03721).
T1 construct: expressed in transfected cells; host or cells: Xenopus oocytes (cRNA injection)
T1 sequence (Q03721 29-635): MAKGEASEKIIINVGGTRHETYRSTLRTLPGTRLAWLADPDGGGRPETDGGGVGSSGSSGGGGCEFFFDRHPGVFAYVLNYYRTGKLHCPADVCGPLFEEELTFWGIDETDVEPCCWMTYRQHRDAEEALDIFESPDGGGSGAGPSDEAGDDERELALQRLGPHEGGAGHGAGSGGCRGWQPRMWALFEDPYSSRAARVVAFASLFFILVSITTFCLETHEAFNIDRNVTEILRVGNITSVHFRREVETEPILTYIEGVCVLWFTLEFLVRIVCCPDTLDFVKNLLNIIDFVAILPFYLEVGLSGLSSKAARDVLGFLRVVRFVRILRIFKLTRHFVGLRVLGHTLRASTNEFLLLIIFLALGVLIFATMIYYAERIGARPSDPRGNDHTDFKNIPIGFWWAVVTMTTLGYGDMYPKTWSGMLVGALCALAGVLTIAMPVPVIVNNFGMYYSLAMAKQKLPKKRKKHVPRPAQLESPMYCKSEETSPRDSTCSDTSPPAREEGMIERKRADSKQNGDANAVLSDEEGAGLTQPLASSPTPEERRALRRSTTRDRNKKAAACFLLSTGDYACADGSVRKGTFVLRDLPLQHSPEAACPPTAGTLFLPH
Put plainly: TEVC current-voltage relationship of Δ1-28 Kv3.4 in Xenopus oocytes. It counts as cell-based. The conditions noted are these: 1 mM. Here is the method: FIG. 6. Opening and block of Kv3.4 by two didabco compounds show voltage-dependency. Normalized I/V relationship for Δ1-28 Kv3.4 currents in oocytes in the absence (control) or presence as indicated of 1 mM JC279.3a or JC638.2a. Peak currents during 2 s pulses to voltages between −80 and +60 mV (protocol upper left insert) were recorded, before and after drug was washed in during successive 0.1 Hz, 2 s pulses from −80 to 0 mV until equilibrium block or opening was observed. Points are means from n=3-16 oocytes; error bars indicate SEM.
Whole-cell two-electrode voltage-clamp (TEVC) recordings were performed on X laevis oocytes expressing cloned Kv2.1, Kv3.4 or Kv4.2 using a Warner OC-725C amplifier and pClamp9 (Axon Instruments, Foster City, Calif.) software. Oocytes were bathed in a small-volume Warner oocyte bath and viewed with a Fisher dissection microscope. Bath solution for whole-cell oocyte recordings was (in mM): 96 NaCl, 4 KCl, 0.7 MgCl2, 1 CaCl2, 10 HEPES (pH 7.4); whole-cell oocyte TEVC pipettes were of 0.2-2 M resistance when filled with 3 M KCl. Experiments were performed 24-48 hours after cRNA injection. For assessment of current-voltage relationships in the absence or presence of dabco derivatives, oocytes were held at −80 mV, stepped for 2 seconds at voltages between −80 mV and +60 mV in 20 mV steps (Kv2.1) or between −80 and +50 mV in 10 mV steps (Kv3.4), then held for 500 ms at −40 mV before returning to the holding potential. For assessment of block during wash-in of dabco derivatives at a single voltage, oocytes were held at −80 mV, and repetitively stepped to 0 mV for 2 s with an interpulse interval of 10 s or 60 s as indicated. A range of concentrations of dabco or dabco derivatives were washed in via the bath solution during repetitive single-voltage pulses (after an initial period of 5 pulses with control solution to ensure current stabilization) until equilibrium block was achieved, to establish dose-responses. Inhibited currents are compared to the current at the end of 5-pulse control period, thus some bar graphs show ‘control’ current values slightly less than 1, and with an error bar, to show how much currents deviate in the absence of drug. Washout was performed after the highest concentration of blocker was washed in. […]
To investigate the mechanism of Kv channel block or opening by didabco compounds, the current-voltage relationship (I/V curve) of Δ1-28 Kv3.4 channels expressed in Xenopus oocytes was assessed using TEVC recording in the absence and presence of a didabco opener (JC279.3a, the 10 CH2-group didabco from FIG. 3) or a didabco blocker (JC638.2a, the para didabco from FIG. 4).

In the case of `c1cc(C[N+]23CCN(CC2)CC3)ccc1C[N+]12CCN(CC1)CC2` [JC638.2α, α,α′-[bis(4-aza-1-azoniabicyclo[2.2.2]octanyl)]p-xylene], the “block or opening of Δ1-28 Kv3.4” value is on record as “blocker”. Besides, the “voltage dependence of block or opening of Kv3.4” value (attenuated at more depolarized voltages) is listed as “voltage-dependent”.
